Marks after values point to notes of the source that are not given here.
Columns and labels:
[1] = test system: model of atopic dermatitis in mice; assay: Response index in DNCB-induced atopic (allopathic) dermatitis in mice; type: in vivo, male Balb/c mice; settings: n = 12
Protocol: The model of allopathic dermatitis was realized by a standard method [Mechanism of dinitrochlorobenzene-induced dermatitis in mice: role of specific antibodies in pathogenesis//PLoS One. 2009; 4(11)].
On days 0 and 12 of the study, 100 μL of a 2% solution of 1-chloro-2,4-dinitrobenzene (DNCB, Sigma-Aldrich, US) in 95% ethanol was applied to shaved sites in the backs of male Balb/c mice. On day 17 of the study, to the right “studied” ear of the animals, 20 μL of the alcohol solution of 2% DNCB was applied two times with a one-hour interval. The studied compound and the reference preparation, dexamethasone, were administered by the intragastric route once daily on days 8-17 of the study.
On day 18 of the study, the animals were euthanized in a CO2 camera. The weights of the “studied” and “control” ears were measured. A response index (RI) expressed in percentage of a difference in the weights of the “studied” and “control” ears was calculated.

[2] = test system: model of bronchial asthma in guinea pigs; assay: Content of cell elements in BAL in the model of bronchial asthma in guinea pigs; type: in vivo, guinea pig
Protocol: (§1) Bronchial asthma in guinea pigs was induced by a standard method [Ricciardolo F L, Nijkamp F, De Rose V, Folkerts G. The guinea pig as an animal model for asthma// Current Drug Targets. 2008 June; 9(6):452-65]. The animals were immunized by one parenteral administration of 0.5 mL of a solution comprising 100 μg/mL ovalbumin (Sigma) and 100 mg/mL aluminium hydroxide. Intact animals received a physiological saline solution in an amount of 0.5 mL.
(§2) On days 29, 30 and 31, hyperactivity of the respiratory airways was provoked by inhalation administration of ovalbumin in ascending concentrations of 0.1, 0.3, and 0.5 mg/mL on days 1, 2, and 3 of the provocation, respectively. The inhalation lasted 5 minutes or until asphyxia symptoms became apparent (fall to one side). On day 32, the animals received a challenging dose of ovalbumin (1 mg/mL) for 5 minutes, while assessing a bronchospastic reaction.
(§3) The studied compounds were administered to the animals once daily every day for 6 or 10 days; the administration was terminated two days before the administration of the challenging dose of antigen.
The bronchoalveolar lavage (BAL) and cardiac cavity blood were derived from the animals 24 hours after administration of the challenging dose. The BAL was collected under anesthesia by lavaging the lungs with 5 mL of a physiological saline solution heated to 37° C. through the trachea, using a syringe dosing device.
The absolute number of cell elements in 1 μL of the lavage (cytosis) was counted in the bronchoalveolar lavage, using the Goryaev camera. Then, the BAL was centrifuged at 200 g for 10 minutes. The residue was used to prepare swabs that were fixed in methanol and stained according to Romanovsky-Giemsa to count endopulmonary cytogram.
(§4) The study comprised 3 experiments, wherein the first one was directed to the evaluation of the effect of claimed compounds 1-6 on the cell composition of the BAL, the second and the third experiments were aimed at evaluating the effect of compounds 1 and 2 on the cell composition of the BAL, the cell composition of the blood, and on the bronchospasm severity.

[3] = test system: model of bronchial asthma in guinea pigs; assay: Severity of bronchospasm in the model of bronchial asthma in guinea pigs; type: in vivo, guinea pig; settings: Experiment No. 1, 10 times, n = 8
Protocol: as §1, §2, §3
The bronchospastic reaction was assessed by a change in the rate and depth of the respiratory movements and by the asphyxia symptom such as fall to one side. Spirogram was registered by laboratory experimental equipment (ADInstruments, Australia), using a base recording station (PowerLab 8sp.) and software LabCart. The registration was made using airflow sensors for laboratory animals and a spirograph with an integrated amplifier (ADInstruments).
as §4

[4] = test system: model of leukotriene-induced eosinophilic lung inflammation in guinea pigs; assay: Content of cell elements in BAL in the model of leukotriene-induced eosinophilic lung inflammation in guinea pigs; type: in vivo, guinea pig; settings: four times, BAL 48 hours after LTD4, n = 8
Description: The model of leukotriene-induced eosinophilic lung inflammation in guinea pigs was realized by a standard method [Underwood DC1, Osborn R R, Newsholme S J, Torphy T J, Hay D W. Persistent airway eosinophilia after leukotriene (LT) D4 administration in the guinea pig: modulation by the LTD4 receptor antagonist, pranlukast, or an interleukin-5 monoclonal antibody// Am J Respir Crit Care Med. 1996 October; 154(4 Pt 1):850-7]. A solution of leukotriene D4 (LTD4, Cayman Chemical, USA) at a concentration of […] (a flow rate of 250 mL/hr) was inhaled to male guinea pigs (250-300 g) under conditions of a double-chamber plethysmograph (Emka Technologies, France) for one minute. The studied compound was administered to the animals by the intragastric route four times: 24 hours and 1 hour before and 24 hours and 45 hours after the inhalation of LTD4. The reference preparation, montelukast (0.8 mg/kg), was administered one time by the intragastric route one hour before the inhalation of LTD4. Bronchoalveolar lavage was taken 48 hours after the inhalation of LTD4, and the total lymphocyte count and leukocyte formula were determined in the lavage. The number of guinea pigs in a group was 8.

[5] = Table 4, 14 mg/kg, 10 times of administration, n = 9
[6] = Table 5 Experiment No. 1, 0.045 mg/kg, 10 times, n = 8
[7] = Table 5 Experiment No. 1, 0.14 mg/kg, 10 times, n = 8
[8] = Table 5 Experiment No. 1, 14 mg/kg, 10 times, n = 8

O=C1CCCC(=O)N1CCc1cnc[nH]1 [Compound 1, 1-(2-(1H-imidazol-4-yl)ethyl)piperidine-2,6-dione]
Response index (%) ([1]; 0.3 mg/kg intragastric once daily on days 8-17): 74.4 ± 7.3*& % | Response index (%) ([1]; 3 mg/kg intragastric once daily on days 8-17): 69.5 ± 8.2*& % | Response index (%) ([1]; 30 mg/kg intragastric once daily on days 8-17): 69.1 ± 8*& % | Eosinophils in BAL [2, 5]: 0.89 ± 0.23*& 10^9/L | Lymphocytes in BAL [2, 5]: 0.70 ± 0.13* 10^9/L | Monocytes in BAL [2, 5]: 0.35 ± 0.09* 10^9/L | Neutrophils in BAL [2, 5]: 0.36 ± 0.09 10^9/L | Cytosis in BAL [2, 6]: 12.8 ± 0.2* 10^9/L | Eosinophils in BAL [2, 6]: 0.45 ± 0.07*& 10^9/L | Lymphocytes in BAL [2, 6]: 0.10 ± 0.04& 10^9/L | Monocytes in BAL [2, 6]: 0.52 ± 0.092* 10^9/L | Neutrophils in BAL [2, 6]: 0.19 ± 0.08 10^9/L | Cytosis in BAL [2, 7]: 10.5 ± 0.2*& 10^9/L | Eosinophils in BAL [2, 7]: 0.41 ± 0.10*& 10^9/L | Lymphocytes in BAL [2, 7]: 0.13 ± 0.04& 10^9/L | Monocytes in BAL [2, 7]: 0.43 ± 0.076* 10^9/L | Neutrophils in BAL [2, 7]: 0.07 ± 0.01 10^9/L | Cytosis in BAL [2, 8]: 14.6 ± 0.3* 10^9/L | Eosinophils in BAL [2, 8]: 0.45 ± 0.12*& 10^9/L | Lymphocytes in BAL [2, 8]: 0.15 ± 0.026*& 10^9/L | Monocytes in BAL [2, 8]: 0.7 ± 0.16* 10^9/L | Neutrophils in BAL [2, 8]: 0.15 ± 0.03* 10^9/L | The number of animals with moderate bronchospasm (without acute phase, with subacute phase, with breath management) ([3]; 0.045 mg/kg): 1 | The number of animals with moderate bronchospasm (without acute phase, with subacute phase, without breath management) ([3]; 0.045 mg/kg): 2 | The number of animals with severe bronchospasm (in acute and subacute phase) ([3]; 0.045 mg/kg): 0 | The number of animals without bronchospasm ([3]; 0.045 mg/kg): 5 | The number of animals with moderate bronchospasm (without acute phase, with subacute phase, with breath management) ([3]; 0.14 mg/kg): 1 | The number of animals with moderate bronchospasm (without acute phase, with subacute phase, without breath management) ([3]; 0.14 mg/kg): 0 | The number of animals with severe bronchospasm (in acute and subacute phase) ([3]; 0.14 mg/kg): 0 | The number of animals without bronchospasm ([3]; 0.14 mg/kg): 7 | The number of animals with moderate bronchospasm (without acute phase, with subacute phase, with breath management) ([3]; 14 mg/kg): 0 | The number of animals with moderate bronchospasm (without acute phase, with subacute phase, without breath management) ([3]; 14 mg/kg): 2 | The number of animals with severe bronchospasm (in acute and subacute phase) ([3]; 14 mg/kg): 1 | The number of animals without bronchospasm ([3]; 14 mg/kg): 5 | Eosinophils, content of cell elements in 1 μL of BAL ([4]; 0.14 mg/kg intragastric): 916 ± 144*& in 1 μL of BAL | Leukocytes, content of cell elements in 1 μL of BAL ([4]; 0.14 mg/kg intragastric): 2638 ± 463*& in 1 μL of BAL | Lymphocytes, content of cell elements in 1 μL of BAL ([4]; 0.14 mg/kg intragastric): 112 ± 27 in 1 μL of BAL | Macrophages, content of cell elements in 1 μL of BAL ([4]; 0.14 mg/kg intragastric): 1360 ± 323 in 1 μL of BAL | Neutrophils, content of cell elements in 1 μL of BAL ([4]; 0.14 mg/kg intragastric): 249 ± 50 in 1 μL of BAL | Eosinophils, content of cell elements in 1 μL of BAL ([4]; 1.4 mg/kg intragastric): 856 ± 288*& in 1 μL of BAL | Leukocytes, content of cell elements in 1 μL of BAL ([4]; 1.4 mg/kg intragastric): 3413 ± 1022 in 1 μL of BAL | Lymphocytes, content of cell elements in 1 μL of BAL ([4]; 1.4 mg/kg intragastric): 144 ± 89 in 1 μL of BAL | Macrophages, content of cell elements in 1 μL of BAL ([4]; 1.4 mg/kg intragastric): 2134 ± 705 in 1 μL of BAL | Neutrophils, content of cell elements in 1 μL of BAL ([4]; 1.4 mg/kg intragastric): 279 ± 97 in 1 μL of BAL | Eosinophils, content of cell elements in 1 μL of BAL ([4]; 14 mg/kg intragastric): 580 ± 124*& in 1 μL of BAL | Leukocytes, content of cell elements in 1 μL of BAL ([4]; 14 mg/kg intragastric): 2250 ± 373*& in 1 μL of BAL | Lymphocytes, content of cell elements in 1 μL of BAL ([4]; 14 mg/kg intragastric): 71 ± 28 in 1 μL of BAL | Macrophages, content of cell elements in 1 μL of BAL ([4]; 14 mg/kg intragastric): 1444 ± 258 in 1 μL of BAL | Neutrophils, content of cell elements in 1 μL of BAL ([4]; 14 mg/kg intragastric): 155 ± 36 in 1 μL of BAL

— patent US10220029B2, “Pharmaceutical composition comprising glutarimide derivatives and use thereof in the treatment of eosinophilic diseases” (OBSCHESTVO S ORGANICHENNOI OTVETSTVENNOSTIYU …, priority 2013, dated 2019)
